According to patent publication US20230095021A1, “MODULATORS OF TDP-43” (Alteron Therapeutics, Inc., priority 2019, published 2023):

Legend:
BACE1 = test: Screening for ALT-59 derivatives with BACE1 protein levels as indicator, U-87 MG cells; format: cell-based; conditions: 2 days, concentrations as indicated in FIGS. 15-17
Experimental: Additional experiments were performed to screen for compounds with higher potency and the ability to penetrate blood brain barrier using BACE1 protein levels as an indicator. U-87 MG cells were cultured as described previously and treated for 2 days with compounds at concentrations as indicated in FIGS. 15-17. Cells were then subjected to Western blotting analysis using anti-BACE1 and anti-beta-actin antibodies.

Phe508del-CFTR = Phe508del-CFTR localization, immunofluorescence microscopy, primary bronchial epithelial cells of a cystic fibrosis patient; format: cell-based, human; conditions: primary bronchial epithelial cells homozygous for Phe508del-CFTR, 3 days
Experimental: MDA-MB-231 and U-87 MG cells were cultured on cover slips under the conditions as described above. Cells were treated with DMSO or 4 μM ALT-59 for 3 days. Primary human bronchial epithelial cells isolated from cystic fibrosis patient homozygous for Phe508del-CFTR (Lifeline Cell Technology) were cultured on cover slips in BronchiaLife Cell Culture Medium supplemented with BrochiaLife LifeFactors Kit (Lifeline Cell Technology) and maintained at 37° C. in a CO2 incubator. Cells were treated with DMSO, 4 μM ALT-59, 2 μM ALT-308, or 4 μM ALT-410 for 3 days.
Cells were fixed in 4% paraformaldehyde for 15 minutes and permeabilized in 0.1% Triton X-100 for 2 minutes. After being blocked in 5% BSA (Sigma-Aldrich), cells were incubated with anti-CFTR antibody (Alomone Labs) followed by Alexa Fluor 488 anti-rabbit secondary antibody. Reagents were buffered in GIBCO PBS (Phosphate-Buffered Saline). Images were taken using Carl Zeiss LSM 510 Laser Scanning Microscope. Parameters were set identical for all images.

With CC1(C)CC(=O)C2=C(C1)c1c(ccc3ccccc13)NC2c1ccc(C(C)(C)C)cc1 (stereo not drawn) [ALT-308, 5-(4-(tert-butyl)phenyl)-2,2-dimethyl-2,3,5,6-tetrahydrobenzo[a]phenanthridin-4(1H)-one] the BACE1 protein expression (BACE1) was “capable of lowering BACE1 expression” and the “localization of Phe508del-CFTR on the plasma membrane” value (Phe508del-CFTR; 2 μM) was “increased localization of Phe508del-CFTR on the plasma membrane”.

CCOC(=O)COc1c(Cl)cc(C2Nc3ccc4ccccc4c3C3=C2C(=O)CCC3)cc1OC (stereo not drawn) [ALT-406, ethyl 2-(2-chloro-6-methoxy-4-(4-oxo-1,2,3,4,5,6-hexahydrobenzo[a]phenanthridin-5-yl)phenoxy)acetate] was tested, and the BACE1 protein expression (BACE1) was “capable of lowering BACE1 expression”.

In the case of CCCC(=O)Oc1ccc(C2Nc3ccc4ccccc4c3C3=C2C(=O)CCC3)cc1OC (stereo not drawn) [ALT-408, 2-methoxy-4-(4-oxo-1,2,3,4,5,6-hexahydrobenzo[a]phenanthridin-5-yl)phenyl butyrate], the BACE1 protein expression (BACE1) is reported as “capable of lowering BACE1 expression”.

In the case of C=CCOc1ccc(C2Nc3ccc4ccccc4c3C3=C2C(=O)CC(C)(C)C3)cc1OC (stereo not drawn) [ALT-409, 5-(4-(allyloxy)-3-methoxyphenyl)-2,2-dimethyl-2,3,5,6-tetrahydrobenzo[a]phenanthridin-4(1H)-one], the BACE1 protein expression (BACE1) is reported as “capable of lowering BACE1 expression”.

In the case of CCCOc1ccc(C2Nc3ccc4ccccc4c3C3=C2C(=O)CCC3)cc1 (stereo not drawn) [ALT-410, 5-(4-propoxyphenyl)-2,3,5,6-tetrahydrobenzo[a]phenanthridin-4(1H)-one], the BACE1 protein expression (BACE1) is reported as “capable of lowering BACE1 expression” and the “localization of Phe508del-CFTR on the plasma membrane” value (Phe508del-CFTR; 4 μM) is reported as “increased localization of Phe508del-CFTR on the plasma membrane”.

With COC(=O)COc1ccc(C2Nc3ccc4ccccc4c3C3=C2C(=O)CCC3)cc1 (stereo not drawn) [ALT-411, methyl 2-(4-(4-oxo-1,2,3,4,5,6-hexahydrobenzo[a]phenanthridin-5-yl)phenoxy)acetate] the BACE1 protein expression (BACE1) was “capable of lowering BACE1 expression”.

In the case of COc1cc(C2Nc3ccc4ccccc4c3C3=C2C(=O)CC(C)(C)C3)ccc1OCC(=O)O (stereo not drawn) [ALT-413, 2-(4-(2,2-dimethyl-4-oxo-1,2,3,4,5,6-hexahydrobenzo[a]phenanthridin-5-yl)-2-methoxyphenoxy)acetic acid], the BACE1 protein expression (BACE1) is reported as “capable of lowering BACE1 expression”.
